According to USRE48461E1, “Modulation of androgen receptor expression” (Ionis Pharmaceuticals, Inc., priority 2012, dated 2021):
Oligonucleotides are written 5' to 3', each unit as a sugar letter and its base; * is a phosphorothioate linkage, no mark a phosphodiester; rarer units and linkages stand in square brackets, end groups in braces. Plain capitals give the bases only. k = constrained ethyl (cEt); [5mC] = 5-methylcytosine; d = 2'-deoxy (DNA)

Legend:
AR mRNA [1] = assay: Antisense inhibition of human AR in HuVEC cells, single concentration (electroporation, qRT-PCR RTS3559); format: cell-based
In short: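 HuVEC cells electroporated with antisense oligonucleotides at a single concentration. AR mRNA quantified by qRT-PCR using human primer-probe set RTS3559 and normalised to total RNA content by RIBOGREEN.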

AR mRNA [2] = assay: Dose-dependent antisense inhibition of human AR in HuVEC cells (electroporation, qRT-PCR RTS3559, IC50); format: cell-based
In short: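 HuVEC cells dosed with antisense oligonucleotides by electroporation and treated approximately 16 hours. AR mRNA quantified by real-time qPCR with primer probe set RTS3559 and normalised to total RNA by RIBOGREEN; IC50 from dose-response.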

[3] = Table 29, 46.9 nM, HuVEC, electroporation, approximately 16 hours
[4] = Table 29, 187.5 nM, HuVEC, electroporation, approximately 16 hours
[5] = Table 29, 750.0 nM, HuVEC, electroporation, approximately 16 hours
[6] = Table 29, 3000.0 nM, HuVEC, electroporation, approximately 16 hours
[7] = Table 29, HuVEC, electroporation, approximately 16 hours
[8] = Table 34, 46.9 nM, HuVEC, electroporation, approximately 16 hours
[9] = Table 34, 187.5 nM, HuVEC, electroporation, approximately 16 hours
[10] = Table 34, 750.0 nM, HuVEC, electroporation, approximately 16 hours
[11] = Table 34, 3000.0 nM, HuVEC, electroporation, approximately 16 hours
[12] = Table 34, HuVEC, electroporation, approximately 16 hours

## 549414 (kG*kT*kT*d[5mC]*dA*dT*dT*d[5mC]*dG*dA*dA*dG*dT*kT*k[5mC]*kA) [compound 549414]
AR mRNA [1]; 500 nM ASO, electroporation, ~24 h, Table 2
  % inhibition: 81%
AR mRNA [2]; 55.6 nM, HuVEC, ~16 h, Table 4
  percent inhibition of AR: 21%
AR mRNA [2]; 166.7 nM, HuVEC, ~16 h, Table 4
  percent inhibition of AR: 35%
AR mRNA [2]; 500.0 nM, HuVEC, ~16 h, Table 4
  percent inhibition of AR: 53%
AR mRNA [2]; 1500.0 nM, HuVEC, ~16 h, Table 4
  percent inhibition of AR: 76%
AR mRNA [2]; HuVEC, ~16 h, Table 4
  IC50: 366 nM

## 583542 (antisense kA*k[5mC]*kA*dG*d[5mC]*dA*d[5mC]*dT*dG*dG*dA*dG*d[5mC]*kG*kG*k[5mC]) [compound 583542]
AR mRNA [1]; 500 nM ASO, ~24 h, Table 16
  % inhibition: 45%
AR mRNA [2]; [3]
  percent inhibition of AR, 46.9 nM: 9%
AR mRNA [2]; [4]
  percent inhibition of AR, 187.5 nM: 28%
AR mRNA [2]; [5]
  percent inhibition of AR, 750.0 nM: 47%
AR mRNA [2]; [6]
  percent inhibition of AR, 3000.0 nM: 66%
AR mRNA [2]; [7]
  IC50: 900 nM

## 584006 (kA*k[5mC]*kA*d[5mC]*dA*dA*dG*dT*dG*dG*dG*dA*d[5mC]*kT*kG*kG; antisense) [compound 584006]
AR mRNA [1]; Table 22, 500 nM oligonucleotide, electroporation, approximately 24 hours, relative to untreated control
  % inhibition: 33%
AR mRNA [2]; [8]
  percent inhibition of AR, 46.9 nM: 21%
AR mRNA [2]; [9]
  percent inhibition of AR, 187.5 nM: 26%
AR mRNA [2]; [10]
  percent inhibition of AR, 750.0 nM: 59%
AR mRNA [2]; [11]
  percent inhibition of AR, 3000.0 nM: 88%
AR mRNA [2]; [12]
  IC50: 350 nM

## 584274 (kG*kT*kT*dA*dT*d[5mC]*dT*dT*dA*d[5mC]*dT*d[5mC]*dT*k[5mC]*k[5mC]*k[5mC]; antisense) [compound 584274]
AR mRNA [1]; Table 25, 1,000 nM oligonucleotide, electroporation, approximately 24 hours, relative to untreated control
  % inhibition: 70%
AR mRNA [2]; Table 36, 46.9 nM, HuVEC, electroporation, approximately 16 hours
  percent inhibition of AR, 46.9 nM: 17%
AR mRNA [2]; Table 36, 187.5 nM, HuVEC, electroporation, approximately 16 hours
  percent inhibition of AR, 187.5 nM: 36%
AR mRNA [2]; Table 36, 750.0 nM, HuVEC, electroporation, approximately 16 hours
  percent inhibition of AR, 750.0 nM: 74%
AR mRNA [2]; Table 36, 3000.0 nM, HuVEC, electroporation, approximately 16 hours
  percent inhibition of AR, 3000.0 nM: 93%
AR mRNA [2]; Table 36, HuVEC, electroporation, approximately 16 hours
  IC50: 230 nM

## 586225 (kG*kT*kT*kG*kA*dT*dT*dT*dA*dA*dT*dG*dG*kT*kT*kG; antisense) [compound 586225]
AR mRNA [1]; 1,000 nM ASO, ~24 h, Table 13
  % inhibition: 88%
AR mRNA [2]; 46.9 nM, HuVEC, ~16 h, Table 15
  percent inhibition of AR: 17%
AR mRNA [2]; 187.5 nM, HuVEC, ~16 h, Table 15
  percent inhibition of AR: 61%
AR mRNA [2]; 750.0 nM, HuVEC, ~16 h, Table 15
  percent inhibition of AR: 89%
AR mRNA [2]; 3000.0 nM, HuVEC, ~16 h, Table 15
  percent inhibition of AR: 97%
AR mRNA [2]; HuVEC cells, electroporation
  IC50: 130 nM
AR mRNA [2]; HuVEC cells, electroporation, 46.9 nM ASO
  inhibition of AR mRNA at 46.9 nM: 17%
AR mRNA [2]; HuVEC cells, electroporation, 187.5 nM ASO
  inhibition of AR mRNA at 187.5 nM: 61%
AR mRNA [2]; HuVEC cells, electroporation, 750.0 nM ASO
  inhibition of AR mRNA at 750.0 nM: 89%
AR mRNA [2]; HuVEC cells, electroporation, 3000.0 nM ASO
  inhibition of AR mRNA at 3000.0 nM: 97%
AR mRNA [2]; HuVEC, ~16 h, Table 15
  IC50: 130 nM

## 584139 (kT*k[5mC]*kT*dA*dA*dA*d[5mC]*dA*dT*dG*dA*d[5mC]*dG*kG*kT*kT; antisense) [compound 584139]
AR mRNA [1]; Table 23, 500 nM oligonucleotide, electroporation, approximately 24 hours, relative to untreated control
  % inhibition: 37%
AR mRNA [2]; [8]
  percent inhibition of AR, 46.9 nM: 13%
AR mRNA [2]; [9]
  percent inhibition of AR, 187.5 nM: 33%
AR mRNA [2]; [10]
  percent inhibition of AR, 750.0 nM: 56%
AR mRNA [2]; [11]
  percent inhibition of AR, 3000.0 nM: 85%
AR mRNA [2]; [12]
  IC50: 400 nM

## 583609 (antisense k[5mC]*kA*kG*d[5mC]*dT*dA*dG*d[5mC]*dT*d[5mC]*dG*d[5mC]*d[5mC]*k[5mC]*kG*k[5mC]) [compound 583609]
AR mRNA [1]; 500 nM ASO, ~24 h, Table 17
  % inhibition: 51%
AR mRNA [2]; [3]
  percent inhibition of AR, 46.9 nM: 16%
AR mRNA [2]; [4]
  percent inhibition of AR, 187.5 nM: 48%
AR mRNA [2]; [5]
  percent inhibition of AR, 750.0 nM: 63%
AR mRNA [2]; [6]
  percent inhibition of AR, 3000.0 nM: 73%
AR mRNA [2]; [7]
  IC50: 360 nM

## 583736 (antisense kT*kG*kG*dA*dT*d[5mC]*dA*d[5mC]*dT*dT*d[5mC]*dG*d[5mC]*kG*k[5mC]*kA) [compound 583736]
AR mRNA [1]; 500 nM ASO, ~24 h, Table 18
  % inhibition: 47%
AR mRNA [2]; Table 30, 46.9 nM, HuVEC, electroporation, approximately 16 hours
  percent inhibition of AR, 46.9 nM: 21%
AR mRNA [2]; Table 30, 187.5 nM, HuVEC, electroporation, approximately 16 hours
  percent inhibition of AR, 187.5 nM: 38%
AR mRNA [2]; Table 30, 750.0 nM, HuVEC, electroporation, approximately 16 hours
  percent inhibition of AR, 750.0 nM: 60%
AR mRNA [2]; Table 30, 3000.0 nM, HuVEC, electroporation, approximately 16 hours
  percent inhibition of AR, 3000.0 nM: 63%
AR mRNA [2]; Table 30, HuVEC, electroporation, approximately 16 hours
  IC50: 510 nM
